Test results taken from PMC7551591, “The Effect of Resveratrol or Curcumin on Head and Neck Cancer Cells Sensitivity to the Cytotoxic Effects of Cisplatin” (Nutrients, 2020).

Assays:
Assay type in all cases: cell-based, human
[1] = tested on: p21 protein (CIP1/CDKN1A) expression in PE/CA-PJ49; assay: Total p21 protein ELISA in cell lysates, tumor cells; settings: 24 h
Procedure: (§1) After incubation, cells were washed twice with ice-cold PBS, scraped, pelleted and lysed in RIPA buffer (Pierce) supplemented with protease inhibitor cocktail (Roche) and phosphatase inhibitor (Roche) for 30 min on ice. The lysates were transfered into microcentrifuge tubes and centrifuged at 14,000× g for 5 min at 4 °C followed by sonication (10–15 s × 3). The supernatants were collected into clean microcentrifuge tubes and stored at −80 °C. Lysates protein concentration were quantified by BCA protein assay kit (Thermo Scientific) and aliquots of 50 μg of total cell lysate were used for ELISA assay.
(§2) DuoSetR IC ELISA-Human Total p21/CIP1/CDKN1A(: DYC1047-2) was purchased from R&D Systems Inc. and contains the basic components required for the development of sandwich ELISAs to measure human p21 protein also known as CIP1 and CDKN1A in cell lysates. An immobilized capture antibody specifically binds human p21. After washing away unbound material, a biotinylated detection antibody specific for human p21 is used to detect the captured protein, utilizing a standard Streptavidin-HRP format. All experiments were performed in triplicates and absorbance was measured at λ = 450 nm using a Dynex plate reader.
(§3) In cancer development and evolution p21 protein might acts as an oncogene or tumor suppressor and for this reason it could be an important player in processes such as the cancer aggressiveness or the response to chemotherapy. In this study, using ELISA assay we analyzed the expression level of p21 in the tumor cells (PE-CA/PJ49) compared to a normal cells (HUVEC).

[2] = tested on: HUVEC normal cells; assay: MTT drug sensitivity (viability) assay, normal cells; settings: 24 h
Procedure: (§4) The MTT assay is based on the ability of viable cells to reduce the reagent 3-(4,5-dimethylthiazol-2-yl)-2,5-diphenyltetrazolium bromide to colored formazan compounds [48]. Because the transformation is only possible in viable cells, the amount of blue formazan is proportional to the number of viable cells and thus, a linear dependence exists between cell activity and absorbance. Cells were seeded in triplicate in 96-well plates at a density of 5000 cells/well, incubated at 37 °C for 24 h. […] After the incubation period, 20 μL MTT (5 mg/mL in PBS) was added and further incubated for 4 h. The supernatant was removed, and the formazan product was analyzed spectrophotometrically (570 nm) after dissolution in DMSO. Wells without cells serve as a blank, and their absorbance was subtracted from the other results. Untreated cells were used as control and their viability was assumed as 100%. Results were expressed as mean values of three determinations ± standard deviation (SD). Data are presented as percent of cell viability and compared to untreated [Viability% = (T − B)/(U − B) × 100, {where T = absorbance of treated cells; U = absorbance of untreated cells, B = absorbance of blank}]. Once percent viability was obtained, the drug response curve was generated, and inhibitory concentration (IC50 and IC25) was calculated using GraphPad Prism version 5.01 [49].
(§5) SI values of more than 2 were considered as indicative of high selectivity.
(§6) The anticancer cytotoxic activity in vitro was evaluated by the MTT assay. […] The most widely used and informative measure of a drug’s efficacy is IC50-the half-maximal inhibitory concentration. IC50 was determined at half of the difference between the maximum (plateau) and minimum absorbance values, by plotting the absorbance value at 570 nm (Y axis) versus the concentration of the compound analysed (X axis). The IC50 values were reported as a mean of three independent experiments ± standard deviation (S.D.).

[3] = tested on: HUVEC normal cells; assay: Annexin V-FITC/PI apoptosis flow cytometry, normal cells; settings: 24 h; for Apoptoza Tarzie = Q2 (%): late apoptosis; for Apoptoza Totală = Q2+Q4 (%): total apoptosis
Procedure: (§7) The apoptosis assay was carried out with the Annexin V-FITC kit using the manufacturer’s (BD Pharmingen) protocol. Treated and untreated 1 × 10^6 cells/mL were resuspended in cold binding buffer and staining simultaneously with 5 μL FITC-Annexin V (green fluorescence) and 5 μL propidium iodide (PI) in the dark, at room temperature for 15 min. Then, 400μL of Annexin V binding buffer was added and 10,000 cells/sample were acquired using a BD Canto II flow cytometer. The analysis was performed using DIVA 6.2 software in order to discriminate viable cells (FITC^−PI^−) from necrotic cells […] and early apoptosis (FITC^+PI^−) from late apoptosis.
(§8) Apoptosis can be seen as an efficient method of preventing malignant transformation, as it ensures the removal of cells which present with genetic alterations. Deficient apoptosis can promote the development of cancer, both through the accumulation of cells found during division and the blocking of the removal of cells with high malignant potential genetic variations. The factors which determine the cells to follow one of three possible pathways are not yet known – the start of apoptosis after cellular injury, the repair of the lesion or the continuation of the cellular cycle. Many therapeutical agents have anti-tumoral effects generated by their capacity to activate the apoptotic process. […] The flow cytometric analysis was performed using DIVA 6.2 software and allowed to discriminate viable cells (FITC^−PI^− = Q3) from necrotic cells (FITC^−PI^+ = Q1) and early apoptosis (FITC^+PI^− = Q4) from late apoptosis (FITC^+PI^+ = Q2).

[4] = tested on: HUVEC normal cells; assay: Cell cycle phase distribution by PI flow cytometry, normal cells; settings: 24 h
Procedure: (§9) For analysis of cell-cycle distribution, the cells were collected after treatment, fixed with 70% ethanol for at least one hour at 4 °C. The cells were stained with propidium iodide (PI) an agent which intercalates into the major groove of double-stranded DNA and produces a highly fluorescent adduct that can be excited at 488 nm with a broad emission around 600 nm. Since PI can also bind to double-stranded RNA, it is necessary to treat the cells with RNase for optimal DNA resolution. Cells (1×10^6 cells/mL) were washed in PBS and centrifuge at 300× g, 5 min at 4 °C. The pellet of the cells were incubated for 10 min at 37 °C with 0.5 mg/sample RNase A and then was added 10 μg/sample of PI staining solution to cell pellet, mix well and incubated 10 min at 37 °C. The samples stored at 4 °C until analyzed by flow cytometry. A minimum of 20,000 events for each sample were collected using a FACS CantoII flow cytometer and ModFIT software (BectonDickinson) and used to determine the cell cycle phase distribution after debris exclusion.
(§10) The progression through the cell cycle phases induced by treatment were evaluated by flow cytometry using a FACSCanto II flow cytometer. Data analysis were performed using the ModFit 3.2 program which offers the possibility of evaluating the cell cycle phases distribution (G0/G1, S, G2 + M).

[5] = tested on: PE/CA-PJ49 tumor cells; assay: Annexin V-FITC/PI apoptosis flow cytometry, tumor cells; settings: 24 h
Procedure: as §7, §8

[6] = tested on: PE/CA-PJ49 tumor cells; assay: MTT drug sensitivity (viability) assay, tumor cells; settings: PE/CA-PJ49, 24 h
Procedure: as §4, §5, §6

[7] = tested on: PE/CA-PJ49 tumor cells; assay: Cell cycle phase distribution by PI flow cytometry, tumor cells; settings: 24 h, CisPt 20 μM
Procedure: as §9, §10

[8] = tested on: p21 protein (CIP1/CDKN1A) expression in HUVEC; assay: Total p21 protein ELISA in cell lysates, normal cells; settings: 24 h
Procedure: as §1, §2, §3

With `N.N.[Cl][Pt][Cl]` [CisPt, cis-diamminedichloroplatinum] the “p21 pg/mL PE/CA-PJ49” value ([1]; 5 μM CisPt) was 1157 pg/mL, the “p21 pg/mL PE/CA-PJ49” value ([1]; 20 μM CisPt) was 915 pg/mL and the “cell viability (MTT)” value ([2]; CisPt 5 μM vs untreated cells) was “significantly reduced”. The “cell viability (MTT)” value ([2]; CisPt 20 μM vs untreated cells) was “significantly reduced”, the “IC 25” value ([2]; MTT) was 5.82 ± 1.1 µM and the IC50 ([2]; MTT) was 20.9 ± 2.1 µM. The “Early Apoptosis = Q4 (%)” value ([3]; 5 μM CisPt) was 5.6%, the “Necrosis = Q1 (%)” value ([3]; 5 μM CisPt) was 1.6% and the “Early Apoptosis = Q4 (%)” value ([3]; 20 μM CisPt) was 7.7%. The “Necrosis = Q1 (%)” value ([3]; 20 μM CisPt) was 1.5%, the “Apoptoza Tarzie = Q2 (%)” value ([3]; 5 μM CisPt) was 0.5% and the “Apoptoza Tarzie = Q2 (%)” value ([3]; 20 μM CisPt) was 0.5%. For the same compound, the “Apoptoza Totală = Q2+Q4 (%)” value ([3]; 5 μM CisPt) was 6.1%, the “Apoptoza Totală = Q2+Q4 (%)” value ([3]; 20 μM CisPt) was 8.2% and the “synthesis phase (S)” value ([4]; 5 μM CisPt) was 29.2%. The S% ([4]; CisPt 20 μM) was 39.65%, the “Early Apoptosis = Q4 (%)” value ([5]; 5 μM CisPt) was 11.3% and the “Late Apoptosis = Q2 (%)” value ([5]; 5 μM CisPt) was 1.2%. The “Necrosis = Q1 (%)” value ([5]; 5 μM CisPt) was 2.1%, the “Total Apoptosis = Q2 + Q4 (%)” value ([5]; 5 μM CisPt) was 12.5% and the “Early Apoptosis = Q4 (%)” value ([5]; 20 μM CisPt) was 15.3%. The “Late Apoptosis = Q2 (%)” value ([5]; 20 μM CisPt) was 2.1%, the “Necrosis = Q1 (%)” value ([5]; 20 μM CisPt) was 1.4% and the “Total Apoptosis = Q2 + Q4 (%)” value ([5]; 20 μM CisPt) was 17.4%. For the same compound, the “cell viability (MTT)” value ([6]; CisPt 5 μM vs untreated cells) was “significantly affected”, the “cell viability (MTT)” value ([6]; CisPt 20 μM vs untreated cells) was “significantly affected” and the “IC 25” value ([6]; MTT) was 3.95 ± 1.2 µM. The IC50 ([6]; MTT) was 9.72 ± 1.7 µM, the G2/M% [7] was 27.5% and the “p21 pg/mL HUVEC” value ([8]; 5 μM CisPt) was 238 pg/mL. The “p21 pg/mL HUVEC” value ([8]; 20 μM CisPt) was 195 pg/mL.
